Reference: US11464749B2, “Bismuth-thiol compositions and methods of use” (Microbion Corporation, priority 2018, dated 2022)
≈ marks a conversion by molar mass, not a printed value.

Key:
[1] = test system: Escherichia coli; details: E. coli MMX 102 (ATCC 25922); CLSI QC ranges shown in parenthesis; cited from earlier work
[2] = test system: Klebsiella pneumoniae; assay: Broth microdilution MIC (Example 11)
[3] = test system: E. faecalis; assay: Broth microdilution MIC (Example 11); details: Enterococcus faecalis, VRE, VRE Lev^R Cip^R Ery^R
[4] = test system: Enterobacter cloacae; assay: Broth microdilution MIC (Example 11); details: ATCCBAA2468
[5] = test system: Staphylococcus aureus (MRSA); assay: Broth microdilution MIC (Example 11)
[6] = test system: Pseudomonas aeruginosa; assay: Broth microdilution MIC (Example 11); details: Pseudomonas aeruginosa
[7] = test system: Acinetobacter baumannii; assay: Broth microdilution MIC (Example 11); details: Acinetobacter baumannii
[8] = test system: Pseudomonas aeruginosa; details: P. aeruginosa MMX 103 (ATCC 27853); CLSI QC ranges shown in parenthesis; cited from earlier work
[9] = test system: Escherichia coli; assay: Broth microdilution MIC (Example 11)

CC(C)(O/N=C(\C(=O)N[C@@H]1C(=O)N2C(C(=O)[O-])=C(C[n+]3ccccc3)CS[C@H]12)c1csc(N)n1)C(=O)O [Ceftazidime]
CLSI QC range of MIC [1]: (0.06-0.5) μg/mL
MIC ([2]; K. pneumoniae MMX 4622, KPC-2, MEM^R, CAZ^R): > 32 µg/mL
MIC ([2]; K. pneumoniae MMX 4623, KPC-2, MEM^R, CAZ^R, GM^R): > 32 µg/mL
MIC ([2]; K. pneumoniae MMX 4653, KPC-3, Lev^R, MEM^R, CAZ^R): > 32 µg/mL
MIC ([2]; K. pneumoniae MMX 4683, KPC-2, Lev^R, MEM^R, CAZ^R): > 32 µg/mL
MIC ([2]; K. pneumoniae MMX 4684, ESBL, MEM^R): 8 µg/mL (≈ 14.6 µM)
MIC ([2]; K. pneumoniae MMX 4685, ESBL, Lev^R, MEM^R, CAZ^R): > 32 µg/mL
MIC ([2]; K. pneumoniae MMX 4694, KPC-3, Lev^R, MEM^R, CAZ^R): > 32 µg/mL
MIC ([2]; K. pneumoniae MMX 5979, NDM-1, Lev^R, MEM^R, CAZ^R, Gm^R): > 32 µg/mL
MIC ([3]; E. faecalis MMX 8960): > 32 µg/mL
MIC ([3]; E. faecalis MMX 8961): > 32 µg/mL
MIC ([3]; E. faecalis MMX 8962): > 32 µg/mL
MIC [4]: > 32 µg/mL
MIC ([5]; ATCC29213|MRSA|MSSA, S. aureus MMX 101 (ATCC 29213), QC, MSSA): 8 µg/mL (≈ 14.6 µM)
MIC ([5]; MRSA, S. aureus MMX 5373, MRSA Lev^R Cip^R CC^R Ery^R Ox^R): > 32 µg/mL
MIC ([5]; MRSA, S. aureus MMX 6311, MRSA Lev^R Cip^R CC^R Ery^R Ox^R): > 32 µg/mL
MIC ([5]; MRSA, S. aureus MMX 9203, MRSA Lev^R Cip^R Ery^R Ox^R): > 32 µg/mL
MIC ([5]; MRSA, S. aureus MMX 9204, MRSA Lev^R Cip^R Ery^R Ox^R): > 32 µg/mL
MIC ([5]; MRSA, S. aureus MMX 9205, MRSA Lev^R Cip^R CC^R Ery^R Ox^R): > 32 µg/mL
MIC ([6]; ATCC27853, P. aeruginosa MMX 103 (ATCC 27853), QC): 2 µg/mL (≈ 3.66 µM)
MIC ([6]; P. aeruginosa MMX 1381, MDR, Lev^R, Cip^R, MEM^R, CAZ^R): 32 µg/mL (≈ 58.5 µM)
MIC ([6]; P. aeruginosa MMX 2562, MDR, Lev^R, Cip^R, MEM^R, CAZ^R): > 32 µg/mL
MIC ([6]; P. aeruginosa MMX 3991, MDR, Lev^R, Cip^R, MEM^R, CAZ^R): 16 µg/mL (≈ 29.3 µM)
MIC ([6]; P. aeruginosa MMX 4654, IMP-7, Lev^R, Cip^R, MEM^R, CAZ^R): > 32 µg/mL
MIC ([6]; P. aeruginosa MMX 4697, VIM-2, Lev^R, Cip^R, MEM^R, CAZ^R): 32 µg/mL (≈ 58.5 µM)
MIC ([7]; A. baumannii MMX 2592, MDR, Lev^R, Cip^R, MEM^R, CAZ^R, Gm^R): 32 µg/mL (≈ 58.5 µM)
MIC ([7]; A. baumannii MMX 2593, MDR, Lev^R, Cip^R, MEM^R, CAZ^R, Gm^R): 32 µg/mL (≈ 58.5 µM)
MIC ([7]; A. baumannii MMX 3372, MDR, Cip^R, MEM^I, CAZ^I): 16 µg/mL (≈ 29.3 µM)
MIC ([7]; A. baumannii MMX 3373, Sensitive): 4 µg/mL (≈ 7.32 µM)
MIC ([7]; NCTC13304, A. baumannii MMX 4651 (NCTC 13304), MDR, OXA-27, Lev^R, Cip^R, MEM^R, CAZ^R, Gm^I): > 32 µg/mL
CLSI QC range of MIC [8]: (1-4) μg/mL
MIC ([9]; ATCC25922, E. coli MMX 102 (ATCC 25922), QC): 0.12 µg/mL (≈ 0.22 µM)
MIC ([9]; ATCCBAA2469, E. coli MMX 5980 (ATCC BAA-2469), NDM-1, Lev^R, MEM^R, CAZ^R, Gm^R): > 32 µg/mL
MIC ([9]; E. coli MMX 8423, ESBL, Lev^R, CAZ^R, Gm^R): 32 µg/mL (≈ 58.5 µM)
MIC ([9]; E. coli MMX 8424, ESBL, CAZ^R): 16 µg/mL (≈ 29.3 µM)
MIC ([9]; E. coli MMX 8425, ESBL, Lev^R, CAZ^R, Gm^R): 16 µg/mL (≈ 29.3 µM)
